Read-outs that look alike come from different tables or passages of the source.
How the values were obtained:
[1] = target: human muscarinic M3 receptor (Homo sapiens (Human), UniProt P20309); assay: Human muscarinic M3 receptor binding assay ([3H]-NMS, CHO-K1 membranes)
Protocol: Test 2: Human Muscarinic M1, M2, M3, M4 and M5Receptors Binding Assays
The study of binding to human muscarinic M1, M2, M3, M4 and M5 receptors was performed using commercial membranes (Perkin Elmer) prepared from CHO-K1 cells. Radioligand binding experiments were conducted in 96 polypropylene well plates in a total volume of 200 μl. All reagents were dissolved in assay binding buffer (PBS with calcium and magnesium, SIGMA), except compounds that were dissolved in DMSO 100%. Non-specific binding (NSB) was measured in the presence of 1 μM atropine. [3H]-NMS was used as the radioligand at a concentration of 1 nM for M2, M3 and M5 and 0.3 nM for M1 and M4. [3H]-NMS and antagonists were incubated with membranes that express human muscarinic receptors M1, M2, M3, M4 and M5 at concentrations of 8.1, 10, 4.9, 4.5 and 4.9 μg/well, respectively.
After an incubation period of two hours with gentle shaking, 150 μl of the reaction mix were transferred to 96 GF/C filter plates (Millipore), previously treated with wash buffer (Tris 50 mM; NaCl 100 mM; pH: 7.4), containing 0.05% PEI (Sigma) during one hour. Bound and free [3H]-NMS were separated by rapid vacuum filtration in a manifold from Millipore and washed four times with ice cold wash buffer. After drying 30 min, 30 μl of OPTIPHASE Supermix were added to each well and radioactivity quantified using a Microbeta microplate scintillation counter.
The affinity of each test compound to the receptors was determined by using ten different concentrations ran in duplicate. IC50s were calculated using Activity Base software from IDBS and the four parameters-log equation.

[2] = target: human adrenergic beta2 receptor (Homo sapiens (Human), UniProt P07550); assay: Human adrenergic β2 receptor binding assay (3H-CGP12177, Sf9 membranes)
human adrenergic beta2 receptor, sequence (P07550 whole entry): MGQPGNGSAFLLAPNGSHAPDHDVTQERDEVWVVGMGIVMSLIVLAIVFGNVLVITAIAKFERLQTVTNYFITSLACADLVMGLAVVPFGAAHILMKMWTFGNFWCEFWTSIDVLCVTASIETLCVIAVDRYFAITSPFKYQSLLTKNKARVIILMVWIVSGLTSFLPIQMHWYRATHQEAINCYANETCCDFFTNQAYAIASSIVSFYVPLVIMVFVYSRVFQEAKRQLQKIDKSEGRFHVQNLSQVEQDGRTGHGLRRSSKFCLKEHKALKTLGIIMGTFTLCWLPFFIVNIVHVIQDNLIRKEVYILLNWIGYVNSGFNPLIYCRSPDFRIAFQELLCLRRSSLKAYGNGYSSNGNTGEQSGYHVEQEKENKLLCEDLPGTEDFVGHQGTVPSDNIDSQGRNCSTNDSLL
Protocol: Test 1: Human Adrenergic β1 and β2 Receptor Binding Assays
The study of binding to human adrenergic beta1 and beta2 receptors was performed using commercial membranes prepared from Sf9 cells where they are overexpressed (Perkin Elmer). The membrane suspensions (16 μg/well for beta1 and 5 μg/well for beta2) in assay buffer (75 mM Tris/HCl with 12.5 mM MgCl2 and 2 mM EDTA pH=7.4) were incubated with 0.14 or 0.6 nM of 3H-CGP12177 (Amersham) for beta 1 and beta 2 receptors respectively in a final volume of 250 μl, in GFC Multiscreen 96 well plates (Millipore) previously treated with assay buffer containing 0.3% PEI (Sigma). Non specific binding was measured in the presence of 1 μM propanolol. Incubation was maintained for 60 minutes at room temperature and with gentle shaking. The binding reactions were terminated by filtration and washing with 2.5 volumes of Tris/HCl 50 mM pH=7.4. The affinity of each test compound to the receptor was determined by using ten different concentrations ran in duplicate. IC50s were calculated using Activity Base software from IDBS and the four parameters-log equation.

[3] = [3H]-NMS displacement, read-out: Binding IC50, nM M3
[4] = 3H-CGP12177 displacement, read-out: Binding IC50, nM β2

human muscarinic M3 receptor, sequence (P20309 whole entry): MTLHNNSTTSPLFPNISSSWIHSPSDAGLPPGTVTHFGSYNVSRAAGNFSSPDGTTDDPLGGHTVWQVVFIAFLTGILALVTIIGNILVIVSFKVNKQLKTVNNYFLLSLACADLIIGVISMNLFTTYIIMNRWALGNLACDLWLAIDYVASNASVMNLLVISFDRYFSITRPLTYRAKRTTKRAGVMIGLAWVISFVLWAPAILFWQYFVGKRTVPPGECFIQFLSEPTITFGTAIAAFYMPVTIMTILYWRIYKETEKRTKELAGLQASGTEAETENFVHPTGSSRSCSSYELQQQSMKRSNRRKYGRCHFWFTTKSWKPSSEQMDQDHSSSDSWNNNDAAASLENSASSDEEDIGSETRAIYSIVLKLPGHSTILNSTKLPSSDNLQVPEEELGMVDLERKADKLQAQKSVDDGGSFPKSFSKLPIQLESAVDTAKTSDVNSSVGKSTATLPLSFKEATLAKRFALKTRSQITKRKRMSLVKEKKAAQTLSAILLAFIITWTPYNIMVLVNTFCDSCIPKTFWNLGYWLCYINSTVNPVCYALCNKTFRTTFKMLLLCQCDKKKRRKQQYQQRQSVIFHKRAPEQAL

| SMILES | IC50 [1, 3] | IC50 [2, 4] | IC50 ([1]; read-out: Binding IC50, nM M3, [3H]-NMS displacement) | IC50 ([2]; read-out: Binding IC50, nM β2, 3H-CGP12177 displacement) |
| --- | --- | --- | --- | --- |
| COc1cc(NC(=O)CCN(C)[C@H]2CC[C@](C)(OC(=O)C(O)(c3cccs3)c3cccs3)CC2)c(Cl)cc1CNC[C@H](O)c1ccc(O)c2[nH]c(=O)ccc12 [Example 13, trans-4-[(3-{[2-chloro-4-({[(2R)-2-hydroxy-2-(8-hydroxy-2-oxo-1,2-dihydroquinolin-5-yl)ethyl]amino}methyl)-5-methoxyphenyl]amino}-3-oxopropyl)(methyl)amino]-1-methylcyclohexyl hydroxy(di-2-thienyl)acetate] | 2.1 nM | 2.2 nM | – | – |
| COc1cc(NC(=O)OCCN(C)[C@H]2CC[C@H](OC(=O)C(O)(c3cccs3)c3cccs3)CC2)c(Cl)cc1CNC[C@H](O)c1ccc(O)c2c1OCC(=O)N2 [Example 26, trans-4-[{2-[({[2-chloro-4-({[(2R)-2-hydroxy-2-(5-hydroxy-3-oxo-3,4-dihydro-2H-1,4-benzoxazin-8-yl)ethyl]amino}methyl)-5-methoxyphenyl]amino}carbonyl)-oxy]ethyl}(methyl)amino]cyclohexyl hydroxy(di-2-thienyl)acetate] | 1.7 nM | 0.38 nM | – | – |
| COc1cc(NC(=O)CCN(C)[C@H]2CC[C@H](OC(=O)C(O)(c3cccs3)c3cccs3)CC2)c(F)cc1CNC[C@H](O)c1ccc(O)c2[nH]c(=O)ccc12 [Example 16, trans-4-[(3-{[2-fluoro-4-({[(2R)-2-hydroxy-2-(8-hydroxy-2-oxo-1,2-dihydroquinolin-5-yl)ethyl]amino}methyl)-5-methoxyphenyl]amino}-3-oxopropyl)(methyl)amino]-cyclohexyl hydroxy(di-2-thienyl)acetate] | 2 nM | 4.8 nM | – | – |
| COc1cc(NC(=O)OCCN(C)[C@H]2CC[C@H](OC(=O)[C@](O)(c3cccs3)C3CCCC3)CC2)c(Cl)cc1CNC[C@H](O)c1ccc(O)c2[nH]c(=O)ccc12 [Example 29, trans-4-[{2-[({[2-chloro-4-({[(2R)-2-hydroxy-2-(8-hydroxy-2-oxo-1,2-dihydroquinolin-5-yl)ethyl]amino}methyl)-5-methoxyphenyl]amino}carbonyl)-oxy]ethyl}(methyl)amino]cyclohexyl (2S)-cyclopentyl(hydroxy)-2-thienylacetate] | 3.8 nM | 1.1 nM | – | – |
| COc1cc(NC(=O)OCCN(C)[C@H]2CC[C@H](OC(=O)C(O)(c3cccs3)c3cccs3)CC2)c(Cl)cc1CNC[C@H](O)c1ccc(O)c2[nH]c(=O)ccc12 [Example 12, trans-4-[{2-[({[2-chloro-4-({[(2R)-2-hydroxy-2-(8-hydroxy-2-oxo-1,2-dihydroquinolin-5-yl)ethyl]amino}methyl)-5-methoxyphenyl]amino}carbonyl)oxy]ethyl}-(methyl)amino]cyclohexyl hydroxy(di-2-thienyl)acetate hydrofluoride] | 1.6 nM | 1.6 nM | – | – |
| COc1cc(OCCCCN(C)[C@H]2CC[C@H](OC(=O)C(O)(c3cccs3)c3cccs3)CC2)c(Cl)cc1CNC[C@H](O)c1ccc(O)c2[nH]c(=O)ccc12 [Example 25, trans-4-[{4-[2-chloro-4-({[(2R)-2-hydroxy-2-(8-hydroxy-2-oxo-1,2-dihydroquinolin-5-yl)ethyl]amino}methyl)-5-methoxyphenoxy]butyl}(methyl)amino]cyclohexyl hydroxy(di-2-thienyl)acetate hydrofluoride (1:2)] | 0.3 nM | 9.6 nM | – | – |
| CN(CCCCCCCCCNC[C@H](O)c1ccc(O)c2[nH]c(=O)ccc12)C1CCC(OC(=O)C(O)(c2cccs2)c2cccs2)CC1 (stereo partly drawn) [Example 1, trans-4-[(9-{[(2R)-2-hydroxy-2-(8-hydroxy-2-oxo-1,2-dihydroquinolin-5-yl)ethyl]-amino}nonyl)(methyl)amino]cyclohexyl hydroxy(di-2-thienyl)acetate formiate (2:1)] | – | – | 0.2 nM | 6.4 nM |
| COc1cc(NC(=O)CCN(C)[C@H]2CC[C@H](OC(=O)C(O)(c3cccs3)c3cccs3)CC2)c(Cl)cc1CCNC[C@H](O)c1ccc(O)c2[nH]c(=O)ccc12 [Example 20, trans-4-[(3-{[2-chloro-4-(2-{[(2R)-2-hydroxy-2-(8-hydroxy-2-oxo-1,2-dihydroquinolin-5-yl)ethyl]amino}ethyl)-5-methoxyphenyl]amino}-3-oxopropyl)-(methyl)amino]cyclohexyl hydroxy(di-2-thienyl)acetate hydrofluoride (1:2)] | 0.7 nM | 5.3 nM | – | – |
| COc1cc(NC(=O)OCCN(C)[C@H]2CC[C@H](OC(=O)C(O)(c3cccs3)c3cccs3)CC2)c(C#N)cc1CNC[C@H](O)c1ccc(O)c2[nH]c(=O)ccc12 [Example 22, trans-4-[{2-[({[2-cyano-4-({[(2R)-2-hydroxy-2-(8-hydroxy-2-oxo-1,2-dihydroquinolin-5-yl)ethyl]amino}methyl)-5-methoxyphenyl]amino}carbonyl)-oxy]ethyl}(methyl)amino]cyclohexyl hydroxy(di-2-thienyl)acetate hydrofluoride (1:2)] | 1.4 nM | 4.5 nM | – | – |
| CN(CCC(=O)Nc1cc(F)c(CNC[C@H](O)c2ccc(O)c3[nH]c(=O)ccc23)cc1F)[C@H]1CC[C@H](OC(=O)C(O)(c2cccs2)c2cccs2)CC1 [Example 18, trans-4-[(3-{[2,5-difluoro-4-({[(2R)-2-hydroxy-2-(8-hydroxy-2-oxo-1,2-dihydroquinolin-5-yl)ethyl]amino}methyl)phenyl]amino}-3-oxopropyl)-(methyl)amino]cyclohexyl hydroxy(di-2-thienyl)acetate hydrofluoride (1:2)] | 1.6 nM | 13 nM | – | – |
| COc1cc(NC(=O)OCCN(C)[C@H]2CC[C@H](OC(=O)[C@](O)(c3ccccc3)C3CCCC3)CC2)c(Cl)cc1CNC[C@H](O)c1ccc(O)c2[nH]c(=O)ccc12 [Example 28, trans-4-[{2-[({[2-chloro-4-({[(2R)-2-hydroxy-2-(8-hydroxy-2-oxo-1,2-dihydroquinolin-5-yl)ethyl]amino}methyl)-5-methoxyphenyl]amino}carbonyl)oxy]ethyl}-(methyl)amino]cyclohexyl (2R)-cyclopentyl (hydroxy)phenylacetate] | 8.5 nM | 1.3 nM | – | – |
